Test results taken from patent US20100080852A1, “PHAMACEUTICAL COMPOSITION COMPRISING NANOPARTICLES AND CASEIN” (priority 2007, published 2010).
Converted amounts (≈) assume the structure as drawn. Where two headings read alike, the source gives them in different places.

Legend:
Log P value of the drugs = type: physicochemical; settings: octanol/water
Source text: The first property of hydrophobic drugs is that they are extremely hydrophobic. Log P, defined as the base 10 logarithm of the ratio of the drug solubility in octanol to the drug solubility in water, is a widely accepted measure of hydrophobicity. By “extremely hydrophobic” is meant that the Log P value of the drug is at least 4.0, preferably at least 4.5, and most preferably at least 5.0. Log P may be measured experimentally or calculated using methods known in the art. When using a calculated value for Log P, the highest value calculated using any generally accepted method for calculating Log P is used. Calculated Log P values are often referred to by the calculation method, such as Clog P, Alog P, and Mlog P. The Log P may also be estimated using fragmentation methods, such as Crippen's fragmentation method (27 J. Chem. Inf. Comput. Sci. 21 (1987)); Viswanadhan's fragmentation method (29 J. Chem. Inf. Comput. Sci. 163 (1989)); or Broto's fragmentation method (19 Eur. J. Med. Chem.-Chim. Theor. 71 (1984). Preferably the Log P value is calculated by using the average value estimated using Crippen's, Viswanadhan's, and Broto's fragmentation methods.

[1] = Solubility of the drugs in MFD solution, PBS or water; type: physicochemical
[2] = MFD solution, fassgf or other biorelevant, read-out: solubility in MFD solution

| solubility ([1]; PBS, aqueous buffer, read-out: solubility in PBS) | logP (Log P value of the drugs; read-out: Log P value) | solubility [1, 2] | Structure (SMILES) | logP (Log P value of the drugs) |
| --- | --- | --- | --- | --- |
|  |  |  | c1cc[c]([Bi]([c]2ccccc2)[c]2ccccc2)cc1 [Drug 5, triphenyl bismuth] | 6 |
| < 0.1 µg/mL | 10 |  | CCc1cc(Oc2cccc(N(Cc3cccc(OC(F)(F)C(F)F)c3)C[C@@H](O)C(F)(F)F)c2)ccc1Cl [Drug 2, (2R)-3-[[3-(4-chloro-3-ethylphenoxy)phenyl][[3-(1,1,2,2-tetrafluoroethoxy)phenyl]methyl]amino]-1,1,1-trifluoro-2-propanol] |  |
|  |  | ~11 µg/mL (≈ 18.4 µM) | CC[C@@H]1C[C@H](N(Cc2cc(C(F)(F)F)cc(C(F)(F)F)c2)C(C)=O)c2cc(C(F)(F)F)ccc2N1C(=O)OC(C)C [Drug 3, [2R,4S] 4-[acetyl-(3,5-bis-trifluoromethyl-benzyl)-amino]-2-ethyl-6-trifluoromethyl-3,4-dihydro-2H-quinoline-1-carboxylic acid isopropyl ester] |  |
|  | 3.75 | ~40 µg/mL (≈ 105 µM) | Cc1ccc(-c2cc(C(F)(F)F)nn2-c2ccc(S(N)(=O)=O)cc2)cc1 [Drug 1, 4-[5-(4-methylphenyl)-3-(trifluoromethyl)-1H-pyrazol-1-yl]benzenesulfonamide] |  |
